From ChEMBL document CHEMBL4373744, “Modifying the lipophilic part of phenylthiazole antibiotics to control their drug-likeness” (Eur J Med Chem, 2020)
Converted amounts (≈) assume the structure as drawn. The source made the active and inactive calls. The calls are words filed in the database; no cut-off is given here.

Key:
Enterococcus faecium = test: Antimicrobial activity against vancomycin-resistant Enterococcus faecium ATCC 700221 by broth liquid microdilution method; assay type: functional
Enterococcus faecalis = test: microbe, parasite or virus in culture; conditions: ATCC 51299
Staphylococcus aureus [1] = test: Antimicrobial activity against vancomycin-resistant Staphylococcus aureus 10 by broth liquid microdilution method; assay type: functional
Staphylococcus aureus [2] = test: microbe, parasite or virus in culture; conditions: NRS384
Description: Antimicrobial activity against methicillin-resistant Staphylococcus aureus NRS384 by broth liquid microdilution method

Staphylococcus aureus [3] = test: microbe, parasite or virus in culture; conditions: NRS 107
Description: Antimicrobial activity against methicillin-sensitive Staphylococcus aureus NRS 107 by broth liquid microdilution method

Escherichia coli [4] = test: Antimicrobial activity against Escherichia coli BW25113 by broth liquid microdilution method; assay type: functional
Staphylococcus aureus [5] = test: Bactericidal activity against methicillin-resistant Staphylococcus aureus USA400 assessed as reduction in number of colony forming units at 5 times MIC incubated for 24 hrs by aliquots transfer to tryptic soy agar and grown for 18 to 20 hrs by Time-kill assay; assay type: functional, organism-based
[6] = test system: Staphylococcus epidermidis; test: Antimicrobial activity against methicillin-resistant Staphylococcus epidermidis NRS101 by broth liquid microdilution method; assay type: functional
Listeria monocytogenes = test: Antimicrobial activity against Listeria monocytogenes ATCC 19111 by broth liquid microdilution method; assay type: functional
Staphylococcus aureus [7] = test: Antimicrobial activity against vancomycin-resistant Staphylococcus aureus 12 by broth liquid microdilution method; assay type: functional
Streptococcus pneumoniae [8] = test: Antimicrobial activity against methicillin-resistant Streptococcus pneumoniae ATCC 700677 by broth liquid microdilution method; assay type: functional
Staphylococcus aureus [9] = test: microbe, parasite or virus in culture; conditions: NRS119
Description: Antimicrobial activity against methicillin-resistant Staphylococcus aureus NRS119 by broth liquid microdilution method

Escherichia coli [10] = test: Antimicrobial activity against Escherichia coli JW55031 harboring deltatolC mutant by broth liquid microdilution method; assay type: functional
Staphylococcus aureus [11] = test: microbe, parasite or virus in culture; conditions: ATCC 6538
Description: Antimicrobial activity against methicillin-sensitive Staphylococcus aureus ATCC 6538 by broth liquid microdilution method

Staphylococcus aureus [12] = test: microbe, parasite or virus in culture; conditions: NRS 385
Description: Antimicrobial activity against methicillin-resistant Staphylococcus aureus NRS 385 by broth liquid microdilution method

Staphylococcus aureus [13] = test: microbe, parasite or virus in culture; conditions: NRS123
Description: Antimicrobial activity against methicillin-resistant Staphylococcus aureus NRS123 by broth liquid microdilution method

Staphylococcus aureus [14] = test: microbe, parasite or virus in culture; conditions: NRS 386
Description: Antimicrobial activity against methicillin-resistant Staphylococcus aureus NRS 386 by broth liquid microdilution method

Staphylococcus aureus [15] = test: Bactericidal activity against methicillin-resistant Staphylococcus aureus USA400 assessed as 3 log reduction in number of colony forming units at 5 times MIC incubated for 10 hrs by aliquots transfer to tryptic soy agar and grown for 18 to 20 hrs by Time-kill assay relative to control; assay type: functional; set-up: scale not given: the % may be the effect or the level left
Streptococcus pneumoniae [16] = test: Antimicrobial activity against cephalosporin-resistant Streptococcus pneumoniae ATCC 51916 by broth liquid microdilution method; assay type: functional
Staphylococcus aureus [17] = test: Bactericidal activity against methicillin-resistant Staphylococcus aureus USA400 assessed as 3 log reduction in number of colony forming units at 5 times MIC incubated for 12 hrs by aliquots transfer to tryptic soy agar and grown for 18 to 20 hrs by Time-kill assay; assay type: functional, organism-based
Staphylococcus aureus [18] = test: Antibiofilm activity against methicillin-resistant Staphylococcus aureus USA300 at 2 times MIC incubated for 24 hrs by crystal violet staining based assay relative to control; assay type: functional
Staphylococcus aureus [19] = test: Antibiofilm activity against methicillin-resistant Staphylococcus aureus USA300 at 4 times MIC incubated for 24 hrs by crystal violet staining based assay relative to control; assay type: functional
Staphylococcus aureus [20] = test: Antimicrobial activity against methicillin-resistant Staphylococcus aureus USA400 infected in mouse J774 cells assessed as reduction in […] bacterial count at 2 to 4 times MIC incubated for 24 hrs; assay type: functional, organism-based
Staphylococcus aureus [21] = test: Bactericidal activity against methicillin-resistant Staphylococcus aureus USA400 assessed as reduction in number of colony forming units at 5 times MIC incubated for 10 hrs by aliquots transfer to tryptic soy agar and grown for 18 to 20 hrs by Time-kill assay relative to control; assay type: functional; set-up: scale not given: the % may be the effect or the level left
J774 = test: Cytotoxicity against mouse J774 cells assessed as reduction in cell viability at 4 to 8 ug/ml incubated for 24 hrs by MTS assay; assay type: cell-based; conditions: j774, 24 h
Staphylococcus aureus [22] = test: Antimicrobial activity against methicillin-resistant Staphylococcus aureus USA400 infected in mouse J774 cells assessed as reduction in […] bacterial count at 2 times MIC incubated for 24 hrs relative to control; assay type: functional; set-up: scale not given: the % may be the effect or the level left
Staphylococcus aureus [23] = test: Antimicrobial activity against methicillin-resistant Staphylococcus aureus USA400 infected in mouse J774 cells assessed as reduction in […] bacterial count at 4 times MIC incubated for 24 hrs relative to control; assay type: functional; set-up: scale not given: the % may be the effect or the level left
Staphylococcus aureus [24] = test: Antibiofilm activity against methicillin-resistant Staphylococcus aureus USA300 incubated for 24 hrs by crystal violet staining based assay; assay type: functional, organism-based

Row | SMILES | MBC (Enterococcus faecium) | MIC (Enterococcus faecium) | MBC (Enterococcus faecalis) | MIC (Enterococcus faecalis) | MBC (Staphylococcus aureus [1]) | MIC (Staphylococcus aureus [1]) | MBC (Staphylococcus aureus [2]) | MIC (Staphylococcus aureus [2]) | MBC (Staphylococcus aureus [3]) | MBC [6] | MIC (Listeria monocytogenes) | MBC (Staphylococcus aureus [7]) | MIC (Staphylococcus aureus [7]) | MIC (Streptococcus pneumoniae [8]) | MBC (Staphylococcus aureus [9]) | MBC (Staphylococcus aureus [11]) | MBC (Staphylococcus aureus [12]) | MBC (Staphylococcus aureus [13]) | MBC (Staphylococcus aureus [14]) | MIC (Streptococcus pneumoniae [16]) | also measured
1 | C/C(=N\NC(=N)N)c1sc(-c2ccc(C#CCCN3CCSC3)cc2)nc1C | 16 µg/mL (≈ 38.8 µM) | 4 µg/mL (≈ 9.69 µM) | 32 µg/mL (≈ 77.6 µM) | 8 µg/mL (≈ 19.4 µM) | 32 µg/mL (≈ 77.6 µM) | 4 µg/mL (≈ 9.69 µM) | 32 µg/mL (≈ 77.6 µM) | 4 µg/mL (≈ 9.69 µM) | 16 µg/mL (≈ 38.8 µM) | 8 µg/mL (≈ 19.4 µM) | 4 µg/mL (≈ 9.69 µM) | 32 µg/mL (≈ 77.6 µM) | 4 µg/mL (≈ 9.69 µM) | 8 µg/mL (≈ 19.4 µM) | 16 µg/mL (≈ 38.8 µM) | 32 µg/mL (≈ 77.6 µM) | 16 µg/mL (≈ 38.8 µM) | 32 µg/mL (≈ 77.6 µM) | 16 µg/mL (≈ 38.8 µM) | 8 µg/mL (≈ 19.4 µM) | MIC (Staphylococcus aureus [3]): 8 µg/mL (≈ 19.4 µM); MIC (Escherichia coli [4]): 64 µg/mL (≈ 155 µM); Activity (Staphylococcus aureus [5]): Active; MIC [6]: 2 µg/mL (≈ 4.85 µM); MBC (Listeria monocytogenes): 32 µg/mL (≈ 77.6 µM); MBC (Streptococcus pneumoniae [8]): 32 µg/mL (≈ 77.6 µM); MIC (Staphylococcus aureus [9]): 4 µg/mL (≈ 9.69 µM); MIC (Escherichia coli [10]): 16 µg/mL (≈ 38.8 µM); MIC (Staphylococcus aureus [11]): 4 µg/mL (≈ 9.69 µM); MIC (Staphylococcus aureus [12]): 4 µg/mL (≈ 9.69 µM); MIC (Staphylococcus aureus [13]): 4 µg/mL (≈ 9.69 µM); MIC (Staphylococcus aureus [14]): 4 µg/mL (≈ 9.69 µM); Activity (Staphylococcus aureus [15]): 99.9%; MBC (Streptococcus pneumoniae [16]): 32 µg/mL (≈ 77.6 µM)
2 | CN[C@H](CC(C)C)C(=O)N[C@H]1C(=O)N[C@@H](CC(N)=O)C(=O)N[C@H]2C(=O)N[C@H]3C(=O)N[C@H](C(=O)N[C@H](C(=O)O)c4cc(O)cc(O)c4-c4cc3ccc4O)[C@H](O)c3ccc(c(Cl)c3)Oc3cc2cc(c3O[C@@H]2O[C@H](CO)[C@@H](O)[C@H](O)[C@H]2O[C@H]2C[C@](C)(N)[C@H](O)[C@H](C)O2)Oc2ccc(cc2Cl)[C@H]1O [VANCOMYCIN] | > 64 µg/mL | > 64 µg/mL | 64 µg/mL (≈ 44.2 µM) | 32 µg/mL (≈ 22.1 µM) | > 64 µg/mL | 64 µg/mL (≈ 44.2 µM) | 1 µg/mL (≈ 0.69 µM) | – | 2 µg/mL (≈ 1.38 µM) | 2 µg/mL (≈ 1.38 µM) | 1 µg/mL (≈ 0.69 µM) | 64 µg/mL (≈ 44.2 µM) | 64 µg/mL (≈ 44.2 µM) | 2 µg/mL (≈ 1.38 µM) | 2 µg/mL (≈ 1.38 µM) | 2 µg/mL (≈ 1.38 µM) | 1 µg/mL (≈ 0.69 µM) | 1 µg/mL (≈ 0.69 µM) | 1 µg/mL (≈ 0.69 µM) | 1 µg/mL (≈ 0.69 µM) | Activity (Staphylococcus aureus [17]): Active; Activity (Staphylococcus aureus [18]): 9%; MIC (Escherichia coli [4]): ≤ 0.5 µg/mL; Activity (Staphylococcus aureus [19]): 16%; MIC (Escherichia coli [10]): ≤ 0.5 µg/mL; Activity (Staphylococcus aureus [20]): inactive
3 | C/C(=N\NC(=N)N)c1sc(-c2ccc(C#CCCN3CC(O)C3)cc2)nc1C | 16 µg/mL (≈ 40.4 µM) | 4 µg/mL (≈ 10.1 µM) | 16 µg/mL (≈ 40.4 µM) | 8 µg/mL (≈ 20.2 µM) | 8 µg/mL (≈ 20.2 µM) | 4 µg/mL (≈ 10.1 µM) | 4 µg/mL (≈ 10.1 µM) | 4 µg/mL (≈ 10.1 µM) | 4 µg/mL (≈ 10.1 µM) | 16 µg/mL (≈ 40.4 µM) | 4 µg/mL (≈ 10.1 µM) | 8 µg/mL (≈ 20.2 µM) | 4 µg/mL (≈ 10.1 µM) | 4 µg/mL (≈ 10.1 µM) | 8 µg/mL (≈ 20.2 µM) | 4 µg/mL (≈ 10.1 µM) | 4 µg/mL (≈ 10.1 µM) | 8 µg/mL (≈ 20.2 µM) | 8 µg/mL (≈ 20.2 µM) | 4 µg/mL (≈ 10.1 µM) | Activity (Staphylococcus aureus [21]): 100%; Activity (Staphylococcus aureus [18]): 31%; MIC (Staphylococcus aureus [3]): 4 µg/mL (≈ 10.1 µM); Activity (Staphylococcus aureus [19]): 72%; Activity (J774): Non-Toxic; MIC [6]: 2 µg/mL (≈ 5.04 µM); MBC (Listeria monocytogenes): 32 µg/mL (≈ 80.7 µM); MBC (Streptococcus pneumoniae [8]): 16 µg/mL (≈ 40.4 µM); Activity (Staphylococcus aureus [22]): 55%; MIC (Staphylococcus aureus [9]): 4 µg/mL (≈ 10.1 µM); MIC (Staphylococcus aureus [11]): 4 µg/mL (≈ 10.1 µM); MIC (Staphylococcus aureus [12]): 4 µg/mL (≈ 10.1 µM); MIC (Staphylococcus aureus [13]): 4 µg/mL (≈ 10.1 µM); MIC (Staphylococcus aureus [14]): 4 µg/mL (≈ 10.1 µM); MBC (Streptococcus pneumoniae [16]): 16 µg/mL (≈ 40.4 µM); Activity (Staphylococcus aureus [23]): 99%; Activity (Staphylococcus aureus [24]): Dose-dependent effect
